Data reported in patent publication US8309546B2, “Morpholinopurine derivatives” (Daiichi Sankyo Company, Limited, priority 2008, dated 2012).

Assays:
[1] = system: Akt (threonine 308) phosphorylation in AN3CA tumor; experiment: Akt phosphorylation inhibition assay in xenograft; assay type: in vivo, female nude mouse; conditions: Mus musculus, AN3-CA, oral, 6 hr after dosing
How it was run: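 AN3CA human endometrial cancer cells grown as subcutaneous xenografts in female nude mice; compound dosed orally at a set concentration, tumors excised after a set time. Tumor lysates at equal protein were western blotted for p-Akt(T308) and p-S6(S235/236). Inhibition (%) = 100−100×(treated/untreated phospho signal).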

[2] = system: human ovary cancer cell strain IGROV1; experiment: Cell growth inhibition test (MTT), IGROV1; assay type: cell-based; conditions: IGROV-1, 72 h, IGROV1, 3 days culture, read-out: concentration exhibiting anti-cell effect (GI50)
How it was run: (§1)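 Cells were seeded per well (AN3CA 5000, IGROV1 1000, HT29 5000), dosed next day and cultured 3 days at 37° C in 5% CO2. Viable cells were read by MTT (4 h, DMSO-solubilized formazan, A540). GI50 was interpolated between the two concentrations bracketing 50% growth rate (T/C %, corrected for day-0 absorbance).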

[3] = system: human endometrial cancer cell strain AN3CA; experiment: Cell growth inhibition test (MTT), AN3CA; assay type: cell-based; conditions: AN3-CA, 72 h, 3 days culture, read-out: concentration exhibiting anti-cell effect (GI50)
How it was run: as §1

## CNc1ncc(-c2nc(N3CCOCC3)c3nc(N4CCN(C(C)=O)CC4)n(CC(F)(F)F)c3n2)cn1 [Example 134, 5-[8-(4-Acetylpiperazin-1-yl)-6-morpholin-4-yl-9-(2,2,2-trifluoroethyl)-9H-purin-2-yl]-N-methylpyrimidin-2-amine]
[1]
  inhibition at 10 mg/kg: 30 to 60%
[2]
  GI50: ≤ 5 µM
[3]
  GI50: ≤ 5 µM
